Reference: paper PMC4042160, “In silico, in vitro and cellular analysis with a kinome-wide inhibitor panel correlates cellular LRRK2 dephosphorylation to inhibitor activity on LRRK2” (Frontiers in Molecular Neuroscience, 2014)

Experiments:
[1] = target: T1, full length LRRK2 protein (Homo sapiens, UniProt Q5S007); test: In vitro LRRKtide kinase assay with full length recombinant LRRK2, dose-response (IC50/pIC50); assay type: biochemical; settings: LRRKtide phosphorylation, dose-response; for IC50: read-out: IC50 in vitro (lrrktide)
T1 construct: compounds were tested in triplicate with full length LRRK2 protein; made in house
T1 sequence (Q5S007 whole entry): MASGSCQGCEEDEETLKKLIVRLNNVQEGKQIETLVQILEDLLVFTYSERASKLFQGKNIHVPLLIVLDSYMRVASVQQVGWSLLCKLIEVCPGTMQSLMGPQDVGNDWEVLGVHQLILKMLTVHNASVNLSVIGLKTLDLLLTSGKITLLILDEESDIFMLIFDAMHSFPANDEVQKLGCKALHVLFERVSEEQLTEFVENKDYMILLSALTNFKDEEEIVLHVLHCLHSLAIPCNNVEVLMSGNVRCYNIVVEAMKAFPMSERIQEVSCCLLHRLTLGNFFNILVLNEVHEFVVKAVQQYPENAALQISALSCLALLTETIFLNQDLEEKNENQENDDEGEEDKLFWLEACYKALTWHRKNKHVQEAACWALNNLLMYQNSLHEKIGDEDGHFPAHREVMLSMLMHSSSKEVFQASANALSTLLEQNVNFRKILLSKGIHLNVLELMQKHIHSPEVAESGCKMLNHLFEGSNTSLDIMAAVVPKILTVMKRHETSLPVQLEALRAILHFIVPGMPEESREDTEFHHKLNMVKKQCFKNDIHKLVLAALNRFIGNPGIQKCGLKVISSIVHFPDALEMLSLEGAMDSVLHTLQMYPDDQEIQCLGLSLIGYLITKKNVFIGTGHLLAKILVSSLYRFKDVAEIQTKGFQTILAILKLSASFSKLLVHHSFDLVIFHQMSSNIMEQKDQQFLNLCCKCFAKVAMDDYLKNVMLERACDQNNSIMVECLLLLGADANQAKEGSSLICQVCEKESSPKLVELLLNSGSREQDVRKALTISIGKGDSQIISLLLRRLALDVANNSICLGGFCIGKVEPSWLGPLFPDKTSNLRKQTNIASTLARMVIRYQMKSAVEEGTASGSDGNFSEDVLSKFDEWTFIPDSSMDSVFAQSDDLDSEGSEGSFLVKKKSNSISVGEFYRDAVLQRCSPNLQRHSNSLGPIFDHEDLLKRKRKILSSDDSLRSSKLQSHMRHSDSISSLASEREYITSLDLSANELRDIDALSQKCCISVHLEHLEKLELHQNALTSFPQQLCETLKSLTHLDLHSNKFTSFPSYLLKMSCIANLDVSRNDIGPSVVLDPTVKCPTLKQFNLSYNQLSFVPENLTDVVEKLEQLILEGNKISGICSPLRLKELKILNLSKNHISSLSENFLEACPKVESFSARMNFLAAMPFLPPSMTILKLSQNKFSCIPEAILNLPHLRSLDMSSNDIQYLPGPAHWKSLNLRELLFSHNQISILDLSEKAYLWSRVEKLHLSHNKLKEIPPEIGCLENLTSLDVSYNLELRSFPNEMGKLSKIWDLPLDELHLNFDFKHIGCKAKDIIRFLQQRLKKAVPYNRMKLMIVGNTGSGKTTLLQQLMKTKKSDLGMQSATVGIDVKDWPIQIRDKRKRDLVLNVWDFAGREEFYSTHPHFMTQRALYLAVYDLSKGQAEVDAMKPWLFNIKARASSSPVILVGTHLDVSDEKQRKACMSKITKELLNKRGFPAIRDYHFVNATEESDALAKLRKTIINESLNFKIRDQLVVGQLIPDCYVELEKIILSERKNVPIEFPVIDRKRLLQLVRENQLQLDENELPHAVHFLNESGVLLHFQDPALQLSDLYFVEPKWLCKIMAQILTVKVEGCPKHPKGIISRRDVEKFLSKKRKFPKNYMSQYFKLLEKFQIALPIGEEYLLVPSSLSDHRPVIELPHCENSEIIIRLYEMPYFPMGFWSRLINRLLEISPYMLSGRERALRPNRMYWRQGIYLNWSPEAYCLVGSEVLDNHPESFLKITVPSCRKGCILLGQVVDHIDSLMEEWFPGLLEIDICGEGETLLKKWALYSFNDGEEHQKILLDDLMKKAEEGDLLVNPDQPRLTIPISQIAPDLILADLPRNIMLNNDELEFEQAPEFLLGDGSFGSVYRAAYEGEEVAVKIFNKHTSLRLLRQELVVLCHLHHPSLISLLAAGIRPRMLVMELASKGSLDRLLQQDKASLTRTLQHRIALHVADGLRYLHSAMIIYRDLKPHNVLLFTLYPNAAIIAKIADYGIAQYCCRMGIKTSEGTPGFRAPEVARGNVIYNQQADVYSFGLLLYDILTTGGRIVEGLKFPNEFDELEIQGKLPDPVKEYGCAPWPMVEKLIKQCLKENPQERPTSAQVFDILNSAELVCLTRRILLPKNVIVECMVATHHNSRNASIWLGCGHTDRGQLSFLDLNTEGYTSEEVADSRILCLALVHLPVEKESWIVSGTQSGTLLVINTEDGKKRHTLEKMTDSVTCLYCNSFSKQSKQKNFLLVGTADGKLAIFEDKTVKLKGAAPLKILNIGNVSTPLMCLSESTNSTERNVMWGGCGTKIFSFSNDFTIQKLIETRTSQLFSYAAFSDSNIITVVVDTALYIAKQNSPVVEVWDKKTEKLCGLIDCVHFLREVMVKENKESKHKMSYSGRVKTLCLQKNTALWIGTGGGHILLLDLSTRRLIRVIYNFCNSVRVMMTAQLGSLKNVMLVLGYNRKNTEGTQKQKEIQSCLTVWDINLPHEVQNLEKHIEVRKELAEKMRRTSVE

[2] = target: T2, LRRK2 phospho-Ser935 (Homo sapiens, UniProt Q5S007); test: Cellular LRRK2 phosphoserine 935 dephosphorylation spotblot assay in SH-SY5Y cells stably expressing 3xFlag-LRRK2; assay type: cell-based; settings: for Phosphorylation level relative to solvent (%) (cellular pS935 assay): @ 5 μM for 2 h, SH-SY5Y stably expressing LRRK2, pS935/total LRRK2; for IC50: pS935 dephosphorylation, read-out: IC50 cellular (pS935); for IC50 / Cellular pS935 (% @ 5 μM): SH-SY5Y cells with stable expression of LRRK2; for Cellular pS935 (% @ 5 μM): pS935 level as % of control, 5 μM for 2 h
T2 construct: expressed in transfected cells
T2 sequence (Q5S007 whole entry): as above

[3] = target: T3, GST-tagged truncated LRRK2 containing residues 970 to 2527 (Homo sapiens, UniProt Q5S007); test: In vitro LRRKtide peptide-substrate kinase assay, single dose testing (10 μM); assay type: biochemical; settings: LRRKtide assay @ 10 μM inhibitor; GST-LRRK2 970-2527; 10 μM ATP; mean, N = 3; solvent control = 100%
T3 construct: GST-tagged truncated LRRK2 containing residues 970 to 2527 (Life Technologies); purchased Life Technologies
T3 sequence (Q5S007 970-2527): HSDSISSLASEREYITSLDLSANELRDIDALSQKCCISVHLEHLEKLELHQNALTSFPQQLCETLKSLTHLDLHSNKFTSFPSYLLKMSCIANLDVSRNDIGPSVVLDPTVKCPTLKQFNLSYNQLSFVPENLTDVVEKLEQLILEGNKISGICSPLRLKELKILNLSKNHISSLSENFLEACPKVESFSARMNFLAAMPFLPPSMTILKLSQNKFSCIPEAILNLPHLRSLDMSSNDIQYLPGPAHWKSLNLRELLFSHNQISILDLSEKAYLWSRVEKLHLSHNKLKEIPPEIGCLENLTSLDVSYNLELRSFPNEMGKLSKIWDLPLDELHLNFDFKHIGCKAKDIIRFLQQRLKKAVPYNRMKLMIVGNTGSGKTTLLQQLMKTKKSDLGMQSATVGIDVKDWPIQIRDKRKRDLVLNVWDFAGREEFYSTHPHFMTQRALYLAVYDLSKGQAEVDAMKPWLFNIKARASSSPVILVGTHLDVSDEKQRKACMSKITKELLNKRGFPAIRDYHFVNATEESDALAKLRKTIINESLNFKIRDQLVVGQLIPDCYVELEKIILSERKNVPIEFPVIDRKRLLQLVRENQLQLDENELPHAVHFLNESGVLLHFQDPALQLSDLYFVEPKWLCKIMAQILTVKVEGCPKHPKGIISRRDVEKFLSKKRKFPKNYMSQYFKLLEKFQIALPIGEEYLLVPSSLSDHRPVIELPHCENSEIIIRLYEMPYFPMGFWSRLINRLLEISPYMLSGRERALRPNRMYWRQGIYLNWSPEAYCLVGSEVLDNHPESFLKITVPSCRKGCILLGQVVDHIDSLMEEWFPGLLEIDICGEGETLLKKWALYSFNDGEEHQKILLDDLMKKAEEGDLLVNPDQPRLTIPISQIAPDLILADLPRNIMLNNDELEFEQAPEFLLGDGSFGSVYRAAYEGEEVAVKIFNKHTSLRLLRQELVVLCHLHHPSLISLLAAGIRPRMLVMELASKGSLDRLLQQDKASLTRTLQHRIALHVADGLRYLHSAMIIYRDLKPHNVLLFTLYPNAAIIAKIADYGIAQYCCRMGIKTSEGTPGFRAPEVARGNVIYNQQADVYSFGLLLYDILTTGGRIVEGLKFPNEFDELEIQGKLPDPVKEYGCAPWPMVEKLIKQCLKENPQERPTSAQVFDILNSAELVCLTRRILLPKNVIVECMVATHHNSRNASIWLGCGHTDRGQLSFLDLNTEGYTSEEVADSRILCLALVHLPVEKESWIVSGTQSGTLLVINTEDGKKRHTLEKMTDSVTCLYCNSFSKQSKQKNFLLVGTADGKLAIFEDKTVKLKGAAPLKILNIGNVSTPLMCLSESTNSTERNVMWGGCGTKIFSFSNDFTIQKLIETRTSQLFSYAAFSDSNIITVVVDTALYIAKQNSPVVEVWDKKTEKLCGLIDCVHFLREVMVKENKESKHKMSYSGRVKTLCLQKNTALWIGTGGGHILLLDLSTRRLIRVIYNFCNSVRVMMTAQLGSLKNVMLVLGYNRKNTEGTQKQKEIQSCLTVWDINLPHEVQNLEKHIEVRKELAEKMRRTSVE

Row | Compound | IC50 [1] | Phosphorylation level relative to solvent (%) (cellular pS935 assay) [2] | IC50 [2] | Cellular pS935 (% @ 5 μM) [2] | % LRRKtide phosphorylation relative to solvent [3] | pIC50 in vitro (lrrktide) [1]
1 | CN(C)S(=O)(=O)c1ccc2c(c1)/C(=C/c1cc3c([nH]1)CCCC3)C(=O)N2 [SU6656] | 0.01 µM | 14.34% | 0.423 µM | 14.34% | 4.57% | –
2 | CC(C)[C@H](CO)Nc1nc(Nc2cc(N)cc(Cl)c2)c2ncn(C(C)C)c2n1 [Aminopurvalanol A] | 2.03 µM | 121.05% | – | 121.05% | 7.36% | –
3 | CCN(CC)CCNC(=O)c1c(C)[nH]c(/C=C2\C(=O)Nc3ccc(Cl)cc32)c1C [SU11652] | 0.0109 µM | 14.19% | 0.316 µM | 14.19% | 0.79% | –
4 | COc1cc2ncnc(Nc3ccc(Oc4ccccc4)cc3)c2cc1OC [Src kinase inhibitor I] | 0.936 µM | 61.51% | – | 61.51% | 27.12% | 6.03
5 | CN(C)c1ccc(/C=C2\C(=O)Nc3ccccc32)cc1 [DMBI] | 1.48 µM | 54.34% | – | 54.34% | 19.33% | 5.83
6 | CCOc1cc2ncnc(Nc3cccc(Br)c3)c2cc1OCC [Compound 56] | 3.01 µM | 86.56% | – | 86.56% | 4.52% | 5.52
7 | CC(C)n1cnc2c(Nc3cccc(Cl)c3)nc(NCCO)nc21 [Compound 52] | 3.93 µM | 76.44% | – | 76.44% | 7.76% | 5.41
8 | COc1ccc2c(c1)/C(=C/c1cnc[nH]1)C(=O)N2 [SU9516] | 2.1 µM | 94.62% | – | 94.62% | 2.99% | –
9 | O=C1Nc2ccccc2/C1=C\c1c(Cl)[nH]c2ccccc12 [Cdk1 inhibitor] | > 10 µM | 78.35% | – | 78.35% | 29.84% | <5
10 | CCC(=O)Nc1ccc2ncnc(Nc3cccc(Br)c3)c2c1 [PD 174265] | 8.87 µM | 67.74% | – | 67.74% | 32.67% | 5.05
11 | COc1cc2ncnc(Nc3cccc(Cl)c3)c2cc1OC [AG 1478] | 3.73 µM | 75.11% | – | 75.11% | 5.72% | 5.43
12 | COc1ccc(CNc2nc(N(CCO)CCO)nc3c2ncn3C(C)C)cc1 [Cdk2 inhibitor III] | > 10 µM | 100.49% | – | 100.49% | 60.51% | <5
13 | CCOC(=O)c1c(C)[nH]c(/C=C2\C(=O)Nc3ccccc32)c1C [VEGF receptor 2 kinase inhibitor I] | 0.0246 µM | 60.83% | – | 60.83% | 26.67% | 7.61
14 | O=C1Nc2ccccc2/C1=C1/Nc2ccccc2/C1=N\OCC(O)CO (centres unmarked) [Indirubin derivative E804] | 0.685 µM | 101.13% | – | 101.13% | 2.23% | 6.16
